From the supplement of paper PMC10307832

Tests used:
Assay in all cases: relative viability (nuclei count vs DMSO), 5 days (fraction); higher = more cells survive
EMC-BAC-2 = test system: EMC-BAC-2
Method in brief: (§1)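 Lung cancer cell lines in 1536-well plates got either a single drug or a fixed anchor-drug dose together with five library-drug doses (not always all listed) in √10 steps, by pin tool, on the day after seeding. Nuclei were counted after 5 days, and relative viability is the treated-to-vehicle ratio of nuclei counts. Values are medians of duplicate plates.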

NCI-H650 = test system: NCI-H650
Method in brief: as §1

NCI-H2023 = test system: NCI-H2023
Method in brief: as §1

NCI-H1993 = test system: NCI-H1993
Method in brief: as §1

NCI-H1395 = test system: NCI-H1395
Method in brief: as §1

HCC-44 = test system: HCC-44
Method in brief: as §1

LOU-NH91 = test system: LOU-NH91
Method in brief: as §1

NCI-H727 = test system: NCI-H727
Method in brief: as §1

201T = test system: 201T
Method in brief: as §1

NCI-H596 = test system: NCI-H596
Method in brief: as §1

NCI-H647 = test system: NCI-H647
Method in brief: as §1

NCI-H838 = test system: NCI-H838
Method in brief: as §1

NCI-H2347 = test system: NCI-H2347
Method in brief: as §1

NCI-H2126 = test system: NCI-H2126
Method in brief: as §1

BEN = test system: BEN
Method in brief: as §1

NCI-H23 = test system: NCI-H23
Method in brief: as §1

HARA = test system: HARA
Method in brief: as §1

NCI-H2087 = test system: NCI-H2087
Method in brief: as §1

NCI-H3122 = test system: NCI-H3122
Method in brief: as §1

## CC(=O)O[C@@]12CO[C@@H]1C[C@H](O)[C@@]1(C)C(=O)[C@H](O)C3=C(C)[C@@H](OC(=O)[C@H](O)[C@@H](NC(=O)OC(C)(C)C)c4ccccc4)C[C@@](O)([C@@H](OC(=O)c4ccccc4)[C@H]21)C3(C)C [Docetaxel] + CS(=O)(=O)CCNCc1ccc(-c2ccc3ncnc(Nc4ccc(OCc5cccc(F)c5)c(Cl)c4)c3c2)o1 [Lapatinib] (partner 2 µM)
EMC-BAC-2; first compound 0.0002 µM
  relative viability: 0.735
EMC-BAC-2; first compound 0.000632 µM
  relative viability: 0.613
EMC-BAC-2; first compound 0.002 µM
  relative viability: 0.337
EMC-BAC-2; first compound 0.006325 µM
  relative viability: 0.278
EMC-BAC-2; first compound 0.02 µM
  relative viability: 0.209
NCI-H650; first compound 0.0002 µM
  relative viability: 0.554
NCI-H650; first compound 0.000632 µM
  relative viability: 0.384
NCI-H650; first compound 0.002 µM
  relative viability: 0.307
NCI-H650; first compound 0.02 µM
  relative viability: 0.168
NCI-H2023; first compound 0.0002 µM
  relative viability: 0.722
NCI-H2023; first compound 0.000632 µM
  relative viability: 0.408
NCI-H2023; first compound 0.002 µM
  relative viability: 0.135
NCI-H2023; first compound 0.006325 µM
  relative viability: 0.1
NCI-H2023; first compound 0.02 µM
  relative viability: 0.0578
NCI-H1993; first compound 0.0002 µM
  relative viability: 0.796
NCI-H1993; first compound 0.000632 µM
  relative viability: 0.824
NCI-H1993; first compound 0.002 µM
  relative viability: 0.627
NCI-H1993; first compound 0.006325 µM
  relative viability: 0.534
NCI-H1993; first compound 0.02 µM
  relative viability: 0.451
NCI-H1395; first compound 0.0002 µM
  relative viability: 0.992
NCI-H1395; first compound 0.000632 µM
  relative viability: 0.954
NCI-H1395; first compound 0.002 µM
  relative viability: 0.775
NCI-H1395; first compound 0.006325 µM
  relative viability: 0.368
NCI-H1395; first compound 0.02 µM
  relative viability: 0.268
HCC-44; first compound 0.0002 µM
  relative viability: 0.936
HCC-44; first compound 0.000632 µM
  relative viability: 0.961
HCC-44; first compound 0.002 µM
  relative viability: 0.621
HCC-44; first compound 0.006325 µM
  relative viability: 0.22
HCC-44; first compound 0.02 µM
  relative viability: 0.115
LOU-NH91; first compound 0.0002 µM
  relative viability: 0.715
LOU-NH91; first compound 0.000632 µM
  relative viability: 0.589
LOU-NH91; first compound 0.002 µM
  relative viability: 0.462
LOU-NH91; first compound 0.006325 µM
  relative viability: 0.361
LOU-NH91; first compound 0.02 µM
  relative viability: 0.351
NCI-H727; first compound 0.0002 µM
  relative viability: 0.854
NCI-H727; first compound 0.000632 µM
  relative viability: 0.787
NCI-H727; first compound 0.002 µM
  relative viability: 0.371
NCI-H727; first compound 0.006325 µM
  relative viability: 0.26
201T; first compound 0.0002 µM
  relative viability: 0.917
201T; first compound 0.000632 µM
  relative viability: 0.937
201T; first compound 0.002 µM
  relative viability: 0.822
201T; first compound 0.006325 µM
  relative viability: 0.622
201T; first compound 0.02 µM
  relative viability: 0.373
NCI-H596; first compound 0.0002 µM
  relative viability: 0.995
NCI-H596; first compound 0.000632 µM
  relative viability: 0.957
NCI-H596; first compound 0.002 µM
  relative viability: 0.844
NCI-H596; first compound 0.006325 µM
  relative viability: 0.372
NCI-H596; first compound 0.02 µM
  relative viability: 0.35
NCI-H647; first compound 0.0002 µM
  relative viability: 0.868
NCI-H647; first compound 0.000632 µM
  relative viability: 0.217
NCI-H647; first compound 0.002 µM
  relative viability: 0.119
NCI-H647; first compound 0.006325 µM
  relative viability: 0.0918
NCI-H647; first compound 0.02 µM
  relative viability: 0.0858
NCI-H838; first compound 0.0002 µM
  relative viability: 0.963
NCI-H838; first compound 0.000632 µM
  relative viability: 0.63
NCI-H838; first compound 0.002 µM
  relative viability: 0.259
NCI-H838; first compound 0.006325 µM
  relative viability: 0.15
NCI-H838; first compound 0.02 µM
  relative viability: 0.106
NCI-H2347; first compound 0.0002 µM
  relative viability: 1.01
NCI-H2347; first compound 0.000632 µM
  relative viability: 1.05
NCI-H2347; first compound 0.002 µM
  relative viability: 0.839
NCI-H2347; first compound 0.006325 µM
  relative viability: 0.512
NCI-H2347; first compound 0.02 µM
  relative viability: 0.479
NCI-H2126; first compound 0.0002 µM
  relative viability: 0.738
NCI-H2126; first compound 0.000632 µM
  relative viability: 0.683
NCI-H2126; first compound 0.002 µM
  relative viability: 0.562
NCI-H2126; first compound 0.006325 µM
  relative viability: 0.395
NCI-H2126; first compound 0.02 µM
  relative viability: 0.253
BEN; first compound 0.0002 µM
  relative viability: 0.582
BEN; first compound 0.000632 µM
  relative viability: 0.549
BEN; first compound 0.002 µM
  relative viability: 0.233
BEN; first compound 0.006325 µM
  relative viability: 0.203
BEN; first compound 0.02 µM
  relative viability: 0.176
NCI-H23; first compound 0.0002 µM
  relative viability: 0.963
NCI-H23; first compound 0.000632 µM
  relative viability: 0.725
NCI-H23; first compound 0.002 µM
  relative viability: 0.356
NCI-H23; first compound 0.006325 µM
  relative viability: 0.157
NCI-H23; first compound 0.02 µM
  relative viability: 0.123
HARA; first compound 0.0002 µM
  relative viability: 0.517
HARA; first compound 0.000632 µM
  relative viability: 0.302
HARA; first compound 0.006325 µM
  relative viability: 0.0686
HARA; first compound 0.02 µM
  relative viability: 0.0783
NCI-H2087; first compound 0.0002 µM
  relative viability: 0.831
NCI-H2087; first compound 0.000632 µM
  relative viability: 0.678
NCI-H2087; first compound 0.002 µM
  relative viability: 0.351
NCI-H2087; first compound 0.006325 µM
  relative viability: 0.269
NCI-H2087; first compound 0.02 µM
  relative viability: 0.137
NCI-H3122; first compound 0.0002 µM
  relative viability: 0.979
NCI-H3122; first compound 0.000632 µM
  relative viability: 0.977
NCI-H3122; first compound 0.002 µM
  relative viability: 0.942
NCI-H3122; first compound 0.006325 µM
  relative viability: 0.296
NCI-H3122; first compound 0.02 µM
  relative viability: 0.242
